The record followed here is paper PMC10385850, “Modified Hederagenin Derivatives Demonstrate Ex Vivo Anthelmintic Activity against Fasciola hepatica” (Pharmaceutics, 2023).

Holding throughout (assay type): cell-based, Fasciola hepatica
Assay [1] has as its system wild strain adult F. hepatica. The experiment in a line: Ex vivo motility assay on adult liver flukes (wild strain). The following applies: 40 µM; for Effect on wild strain adult fluke motility, in words: 72 h; for Average motility of 4 parasites with 95% CI at 72 hour time point: wild strain adult flukes, score 1 good/normal to 6 no movement or dead. The protocol: Due to the high number of active molecules and a shortage of Italian strain adult liver flukes, the eleven hit compounds were screened for 72 h at 40 µM (in 0.4% DMSO) on wild strain adult F. hepatica (n = 4/condition) of unknown provenance (Table S3). The protocol for culturing and scoring (motility) the activity of these compounds was previously described (1—good/normal; 2—moderate; 3—resting (less than 10 s pulses of body and head), 4—apathetic (less than 2 s pulses of body and head), 5—paralysis and 6–no movement or dead worms). Six compounds were deemed active in these assays and were selected for further screening.

Assay [2] relates to F. hepatica newly excysted juveniles (NEJs), Italian strain. The experiment in a line: Ex vivo screen against newly excysted juveniles (NEJs), phenotype and motility scoring. The following applies: 10 µM; for Average motility of 25 NEJs with 95% CI, 24 hours / Average motility of 25 NEJs with 95% CI, 48 hours / Average motility of 25 NEJs with 95% CI, 72 hours: motility score 1 good/normal to 5 no movement; for Average phenotype of 25 NEJs with 95% CI, 24 hours / Average phenotype of 25 NEJs with 95% CI, 48 hours / Average phenotype of 25 NEJs with 95% CI, 72 hours: ultrastructure score 1 normal to 6 dead or dissolved; for Activity against NEJs (first screen), in words: 72 h co-culture. The method, then:
[…] The NEJs were excysted from metacercariae and assayed at 10 μM (in 0.1% DMSO) final concentration alongside negative (0.1% DMSO) and positive (10 μM TCBZ, in 0.1% DMSO) controls as previously described. The MC and IVL compound series were screened separately.
The motility (1—good/normal; 2—moderate; 3—low; 4—very little; 5—no movement) and phenotypic (ultrastructural changes) scores were noted according to a previously described scoring matrix (Figure S1 and Table S2).

Assay [3] concerns immature F. hepatica flukes (Italian strain). The experiment in a line: Ex vivo motility assay on immature liver flukes (Italian strain), single concentration and dose response. The following applies: 40 µM. The method, then:
The six selected compounds (at 40 µM in 0.4% DMSO) were evaluated on immature flukes (n = 4/condition) at 24, 48 and 72 h (Table S4). The protocol for culturing and scoring (motility) of these life stages have been previously described. Due to restricted numbers of immature worms, a dose response assay was conducted only for MC042. Here, immature worms (n = 2/concentration tested) were screened against descending concentrations of MC042 (40 µM, 13.3 µM and 4.4 µM); motility scores were recorded at 24, 48 and 72 h (Table S5). The scoring pattern used is identical to that described for NEJs.

Structures are written as SMILES. Entries after “also recorded” stand apart in the source; their conditions may differ.

In the case of `CC(=O)OC[C@]12CCC(C)(C)CC1C1=CCC3[C@@]4(C)CC[C@H](O)[C@@](C)(CO)C4CC[C@@]3(C)[C@]1(C)CC2` (stereo partly drawn) [MC037, ((4aS,6aS,6bR,9R,10S,12aR)-10-Hydroxy-9-(hydroxymethyl)-2,2,6a,6b,9,12a-hexamethyl-1,3,4,5,6,6a, 6b,7,8,8a,9,10,11,12,12a,12b,13,14b-octadecahydropicen-4a(2H)-yl)methyl acetate], in assay [1], the “Effect on wild strain adult fluke motility, in words” value is “less severe motility defects” and the “Average motility of 4 parasites with 95% CI at 72 hour time point” value was 3.25 (2;4.4). Moreover, in assay [2], the “Average motility of 25 NEJs with 95% CI, 24 hours” value is 5.00 (5.0;5.0); the “Average phenotype of 25 NEJs with 95% CI, 24 hours” value is 6.00 (6.0;6.0); the “Average motility of 25 NEJs with 95% CI, 48 hours” value was 5.00 (5.0;5.0); the “Average phenotype of 25 NEJs with 95% CI, 48 hours” value is 6.00 (6.0;6.0). Besides, in assay [2], the “Average motility of 25 NEJs with 95% CI, 72 hours” value is 5.00 (5.0;5.0); the “Average phenotype of 25 NEJs with 95% CI, 72 hours” value is reported as 6.00 (6.0;6.0); the “Activity against NEJs (first screen), in words” value (“Activity against NEJs” below) was “maximal alterations to both phenotype/ultrastructure and motility”.
Take `CC1(C)CC[C@]2(NC(N)=O)CC[C@]3(C)C(=CCC4[C@@]5(C)CCC6OC(C)(C)OC[C@@]6(C)C5CC[C@]43C)C2C1` (stereo partly drawn) [MC024, 1-((4aR,6aR,6bS,8aS,14bR)-2,2,4a,6a,6b,11,11,14b-Octamethyl-4a,5,6,6a,6b,7,8,9,10,11, 12, 12a,14,14a, 14b,15,16,16a-octadecahydro-4H-piceno[3,4-d][1,3]dioxin-8a(4bH)-yl)urea]: in assay [1], the “Effect on wild strain adult fluke motility, in words” value is recorded as “less severe motility defects” and the “Average motility of 4 parasites with 95% CI at 72 hour time point” value is recorded as 4.25 (3.2;5.7). In addition, in assay [2], the “Average motility of 25 NEJs with 95% CI, 24 hours” value was 5.00 (5.0;5.0); the “Average phenotype of 25 NEJs with 95% CI, 24 hours” value is on record as 5.00 (5.0;5.0); the “Average motility of 25 NEJs with 95% CI, 48 hours” value is given as 5.00 (5.0;5.0); the “Average phenotype of 25 NEJs with 95% CI, 48 hours” value was 5.00 (5.0;5.0). In assay [2], the “Average motility of 25 NEJs with 95% CI, 72 hours” value was 5.00 (5.0;5.0); the “Average phenotype of 25 NEJs with 95% CI, 72 hours” value is recorded as 5.00 (5.0;5.0); the “Activity against NEJs” value is “maximal alterations to both phenotype/ultrastructure and motility”.
As to `CC(=O)OC[C@@]1(C)C2CC[C@]3(C)C(CC=C4C5CC(C)(C)CC[C@]5(NC(=O)N5CCCC5)CC[C@]43C)[C@@]2(C)CC[C@@H]1O` (stereo partly drawn) [MC057, ((3S,4R,6aR,6bS,8aS,14bR)-3-Hydroxy-4,6a,6b,11,11,14b-hexamethyl-8a-(pyrrolidine-1-carbox-amido)-1,2,3,4,4a,5,6,6a,6b,7,8,8a,9,10,11,12,12a,14,14a, 14b-icosahydropicen-4-yl)-methyl acetate], in assay [1], the “Effect on wild strain adult fluke motility, in words” value is reported as “partial paralysis” and the “Average motility of 4 parasites with 95% CI at 72 hour time point” value is recorded as 5.00 (5.0;5.0). Besides, the “Average motility of 4 parasites with 95% CI at 24 hour time point” value in assay [3] (24 h, immature flukes, score 1 normal to 5 no movement or death) is listed as 3.50 (2.5;4.4). Besides, the “Average motility of 4 parasites with 95% CI at 48 hour time point” value in assay [3] (48 h, immature flukes, score 1 to 5) was 4.25 (3.3;5.1). Moreover, in assay [3] (72 h, immature flukes, score 1 to 5), the “Average motility of 4 parasites with 95% CI at 72 hour time point” value is 4.50 (3.5;5.4). Also, in assay [3] (by 72 h), the “Effect on immature fluke motility, in words” value is “least active in this series”. In addition, in assay [2], the “Average motility of 25 NEJs with 95% CI, 24 hours” value is 5.00 (5.0;5.0); the “Average phenotype of 25 NEJs with 95% CI, 24 hours” value is given as 6.00 (6.0;6.0); the “Average motility of 25 NEJs with 95% CI, 48 hours” value is given as 5.00 (5.0;5.0); the “Average phenotype of 25 NEJs with 95% CI, 48 hours” value is recorded as 6.00 (6.0;6.0). In assay [2], the “Average motility of 25 NEJs with 95% CI, 72 hours” value was 5.00 (5.0;5.0); the “Average phenotype of 25 NEJs with 95% CI, 72 hours” value is on record as 6.00 (6.0;6.0); the “Activity against NEJs” value was “maximal alterations to both phenotype/ultrastructure and motility”.
As for `CC(=O)OCC1(C)C(OC(C)=O)CCC2(C)C1CCC1(C)C2CC=C2C3CC(C)(C)CCC3(NC(=O)N3CCCC3)CCC21C` (stereo not shown) [MC056], in assay [1], the “Effect on wild strain adult fluke motility, in words” value is on record as “less severe motility defects; also recorded: limited activity” and the “Average motility of 4 parasites with 95% CI at 72 hour time point” value was 4.25 (3.3;5.1). Besides, in assay [2], the “Average motility of 25 NEJs with 95% CI, 24 hours” value is given as 5.00 (5.0;5.0); the “Average phenotype of 25 NEJs with 95% CI, 24 hours” value is on record as 6.00 (6.0;6.0); the “Average motility of 25 NEJs with 95% CI, 48 hours” value is given as 5.00 (5.0;5.0); the “Average phenotype of 25 NEJs with 95% CI, 48 hours” value is listed as 6.00 (6.0;6.0). Also, in assay [2], the “Average motility of 25 NEJs with 95% CI, 72 hours” value was 5.00 (5.0;5.0); the “Average phenotype of 25 NEJs with 95% CI, 72 hours” value is listed as 6.00 (6.0;6.0); the “Activity against NEJs” value is “maximal alterations to both phenotype/ultrastructure and motility”.
For the compound `CC(=O)OC[C@]12CCC(C)(C)CC1C1=CCC3[C@@]4(C)CCC5OC(C)(C)OC[C@@]5(C)C4CC[C@@]3(C)[C@]1(C)CC2` (stereo partly drawn) [MC031, ((4aR,6aR,6bS,8aS,14bR)-2,2,4a,6a,6b,11,11,14b-Octamethyl-4a,5,6,6a,6b,7,8,9,10,11,12,12a,14,14a, 14b,15,16,16a-octadecahydro-4H-piceno[3,4-d][1,3]dioxin-8a(4bH)-yl)methyl acetate], in assay [2], the “Average motility of 25 NEJs with 95% CI, 24 hours” value is 2.96 (2.4;3.4); the “Average phenotype of 25 NEJs with 95% CI, 24 hours” value was 2.72 (1.9;3.4); the “Average motility of 25 NEJs with 95% CI, 48 hours” value is given as 2.76 (2;3.4); the “Average phenotype of 25 NEJs with 95% CI, 48 hours” value was 3.64 (2.9;4.3). In addition, in assay [2], the “Average motility of 25 NEJs with 95% CI, 72 hours” value is recorded as 3.44 (2.6;4.2) and the “Average phenotype of 25 NEJs with 95% CI, 72 hours” value is recorded as 4.80 (4.2;5.3).
Regarding `CC1(C)CC[C@]2(NC(=O)N3CCCC3)CC[C@]3(C)C(=CCC4[C@@]5(C)CCC6OC(C)(C)OC[C@@]6(C)C5CC[C@]43C)C2C1` (stereo partly drawn) [MC023, N-((4aR,6aR,6bS,8aS,14bR)-2,2,4a,6a,6b,11,11,14b-Octamethyl-4a,5,6,6a,6b,7,8,9,10,11,12,12a,14,14a, 14b,15,16,16a-octadecahydro-4H-piceno[3,4-d][1,3]dioxin-8a(4bH)-yl)-pyrolidine-1-carboxamide], in assay [1], the “Effect on wild strain adult fluke motility, in words” value was “less severe motility defects” and the “Average motility of 4 parasites with 95% CI at 72 hour time point” value is given as 4.75 (3.5;5.9). For the same compound, in assay [2], the “Average motility of 25 NEJs with 95% CI, 24 hours” value is 5.00 (5.0;5.0); the “Average phenotype of 25 NEJs with 95% CI, 24 hours” value was 5.00 (5.0;5.0); the “Average motility of 25 NEJs with 95% CI, 48 hours” value is reported as 5.00 (5.0;5.0); the “Average phenotype of 25 NEJs with 95% CI, 48 hours” value was 5.00 (5.0;5.0). In addition, in assay [2], the “Average motility of 25 NEJs with 95% CI, 72 hours” value is 5.00 (5.0;5.0); the “Average phenotype of 25 NEJs with 95% CI, 72 hours” value is recorded as 5.00 (5.0;5.0); the “Activity against NEJs” value was “maximal alterations to both phenotype/ultrastructure and motility”.
As to `CCCCCCCCCCCCCCCC(=O)OC[C@]12CCC(C)(C)CC1C1=CCC3[C@@]4(C)CC[C@H](O)[C@@](C)(CO)C4CC[C@@]3(C)[C@]1(C)CC2` (stereo partly drawn) [MC038, ((4aS,6aS,6bR,9R,10S,12aR)-10-Hydroxy-9-(hydroxymethyl)-2,2,6a,6b,9,12a-hexamethyl-1,3,4,5,6,6a, 6b,7,8,8a,9,10,11,12,12a,12b,13,14b-octadecahydropicen-4a(2H)-yl)methyl palmitate], in assay [2], the “Average motility of 25 NEJs with 95% CI, 24 hours” value is 2.96 (2.3;3.5); the “Average phenotype of 25 NEJs with 95% CI, 24 hours” value is on record as 2.32 (1.7;2.9); the “Average motility of 25 NEJs with 95% CI, 48 hours” value is 2.80 (2.2;3.3); the “Average phenotype of 25 NEJs with 95% CI, 48 hours” value is given as 2.92 (2.1;3.6). Also, in assay [2], the “Average motility of 25 NEJs with 95% CI, 72 hours” value was 3.32 (2.7;3.8) and the “Average phenotype of 25 NEJs with 95% CI, 72 hours” value is recorded as 3.48 (2.7;4.2).
As for `CC1(C)CC[C@]2(NC(=O)NCc3ccccc3)CC[C@]3(C)C(=CCC4[C@@]5(C)CCC6OC(C)(C)OC[C@@]6(C)C5CC[C@]43C)C2C1` (stereo partly drawn) [MC017, 1-Benzyl-3-((4aR,6aR,6bS,8aS,14bR)-2,2,4a,6a,6b,11,11,14b-octamethyl-4a,5,6,6a,6b,7,8,9,10,11,12,12a,14,14a,14b,15,16,16a-octadecahydro-4H-piceno[3,4-d][1,3]dioxin-8a(4bH)-yl)urea], in assay [2], the “Average motility of 25 NEJs with 95% CI, 24 hours” value was 4.12 (3.7;4.5); the “Average phenotype of 25 NEJs with 95% CI, 24 hours” value was 3.28 (2.5;4); the “Average motility of 25 NEJs with 95% CI, 48 hours” value was 4.0 (3.5; 4.4); the “Average phenotype of 25 NEJs with 95% CI, 48 hours” value is 4.04 (3.3;4.6). Besides, in assay [2], the “Average motility of 25 NEJs with 95% CI, 72 hours” value is 3.92 (3.3; 4.4) and the “Average phenotype of 25 NEJs with 95% CI, 72 hours” value is reported as 4.12 (3.4;4.7).
